Consider 22 molecules from US10538512B2, “Aminoacylindazole immunomodulators for treatment of autoimmune diseases” (The Rockefeller University, priority 2016, dated 2020).

SMILES strings stand for the structures.

One experiment concerns the target T1, Human FXIIa (Homo sapiens, UniProt P00748).
T1 construct: active coagulation factor XII (FXIIa); purchased Enzyme Research Labs
T1 sequence (P00748 373-615 limits assumed): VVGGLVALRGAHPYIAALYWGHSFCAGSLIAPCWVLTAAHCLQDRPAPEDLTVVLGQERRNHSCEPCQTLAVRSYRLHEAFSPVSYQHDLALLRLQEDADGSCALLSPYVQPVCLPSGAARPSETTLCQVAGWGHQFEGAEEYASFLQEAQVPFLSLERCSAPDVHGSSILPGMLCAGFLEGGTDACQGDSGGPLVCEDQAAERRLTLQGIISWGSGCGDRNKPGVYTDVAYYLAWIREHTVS
T1 sequence (P00748 20-372 partner limits assumed): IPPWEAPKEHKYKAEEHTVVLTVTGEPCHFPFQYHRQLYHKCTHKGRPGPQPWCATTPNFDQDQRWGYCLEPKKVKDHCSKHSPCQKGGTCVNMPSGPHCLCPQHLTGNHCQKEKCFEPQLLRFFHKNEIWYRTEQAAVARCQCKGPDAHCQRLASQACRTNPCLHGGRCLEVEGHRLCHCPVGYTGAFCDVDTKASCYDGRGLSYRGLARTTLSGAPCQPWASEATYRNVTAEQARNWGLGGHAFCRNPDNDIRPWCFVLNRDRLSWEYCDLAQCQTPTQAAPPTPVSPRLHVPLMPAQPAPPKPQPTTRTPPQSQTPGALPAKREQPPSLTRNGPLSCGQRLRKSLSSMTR
Put plainly: Factor XIIa (FXIIa) inhibitory activity, chromogenic substrate assay. The format is biochemical. The following applies: Human FXIIa 12.5 nM, Pefachrome XIIa 400 μM, 10 min preincubation. An outline of the steps:
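Activity was taken as the rate of absorbance increase at 405 nm, read at 37 °C after adding 400 μM (final) Pefachrome XIIa. Compounds spanning roughly 1–100 μM were first preincubated with enzyme for 10 min at room temperature in HEPES pH 7.4-buffered HBSS/TBS-Tween.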

The target of another experiment is T2, Human alpha-thrombin (Homo sapiens, UniProt P00734).
T2 construct: Human alpha-thrombin (Enzyme Research Labs); purchased Enzyme Research Labs
Put plainly: Thrombin counterscreen for selectivity, fluorogenic substrate assay. The format is biochemical. The following applies: Human alpha-thrombin 12.5 nM, Boc-Val-Pro-Arg-AMC 20 μM, 10 min preincubation. As to the method: Counterscreens for Selectivity:
In a 96-well white opaque plate, 80 μl of assay buffer was added to each well. Test compounds were added, and serially diluted as above, to generate a concentration range of approximately 1-100 μM. […] 80 μl of this enzyme solution was added to the assay wells. The enzyme/compound mixtures were incubated for 10 minutes at room temperature. Fluorogenic substrate (Boc-Val-Pro-Arg-7-amido-4-methylcoumarin; Sigma) was added to assay wells at a final concentration of 20 μM. The assay plate was spun for 1 minute at 1500 g and then read at 37° C. in a SpectraMax M2 plate reader (λex=380 nm and λem=460 nm). Activity was quantified as the rate of change in fluorescence, which corresponds to the rate of substrate cleavage.
Background: The purpose of a counterscreen is to sort out artefacts and off-target activity.

The IC50 is the concentration that inhibits the measured activity by half. A higher IC50 goes with lower potency.

In the case of `Nc1c2c(nn1C(=O)[C@H]1CCNc3ccc(F)cc31)CC[C@H](F)C2` (single isomer, unassigned) [Example 140, ((5S*)-3-amino-5-fluoro-4,5,6,7-tetrahydroindazol-2-yl)((4S*)-6-fluoro-1,2,3,4-tetrahydroquinolin-4-yl)methanone], the IC50 at Human FXIIa is 0.2 µM; against Human alpha-thrombin, over 60 µM.

Regarding `Nc1c2c(nn1C(=O)[C@H]1CCNc3ccc(Cl)cc31)CC[C@H](O)C2` (single isomer, unassigned) [Example 143, ((5S*)-3-amino-5-hydroxy-4,5,6,7-tetrahydroindazol-2-yl)((4S*)-6-chloro-1,2,3,4-tetrahydroquinolin-4-yl)methanone], the IC50 was 1.3 µM on Human FXIIa and over 80 µM at Human alpha-thrombin.

`Nc1c2c(nn1C(=O)[C@H]1CCNc3ccc(Cl)cc31)CC[C@@H](O)C2` (single isomer, unassigned) [Example 148, ((5R*)-3-amino-5-hydroxy-4,5,6,7-tetrahydroindazol-2-yl)((4S*)-6-chloro-1,2,3,4-tetrahydroquinolin-4-yl)methanone]: the 50% inhibitory concentration (IC50) on Human FXIIa was 0.04 µM; against Human alpha-thrombin it was over 80 µM.

For the molecule `Nc1c2c(nn1C(=O)[C@H]1CCNc3ccccc31)CC[C@@H](O)C2` (single isomer, unassigned) [Example 165, ((5R*)-3-amino-5-hydroxy-4,5,6,7-tetrahydroindazol-2-yl)((4S*)-1,2,3,4-tetrahydroquinolin-4-yl)methanone], the IC50 on Human FXIIa was 0.35 µM; against Human alpha-thrombin, over 80 µM.

On to `Nc1nn(C(=O)[C@H]2CCNc3ccccc32)c2c1C[C@H](O)CC2` (single isomer, unassigned) [Example 167, ((5R*)-3-amino-5-hydroxy-4,5,6,7-tetrahydroindazol-1-yl)((4S*)-1,2,3,4-tetrahydroquinolin-4-yl)methanone], for which the IC50 on Human FXIIa and against Human alpha-thrombin was over 80 µM in each case.

As to `Nc1nn(C(=O)[C@@H]2CCNc3ccccc32)c2c1C[C@H](O)CC2` (single isomer, unassigned) [Example 168, ((5R*)-3-amino-5-hydroxy-4,5,6,7-tetrahydroindazol-1-yl)((4R*)-1,2,3,4-tetrahydroquinolin-4-yl)methanone], the IC50 at Human FXIIa and at Human alpha-thrombin was over 100 µM in each case.

With `Nc1c2c(nn1C(=O)[C@@H]1CCNc3ccccc31)CC[C@H](O)C2` (single isomer, unassigned) [Example 169, ((5S*)-3-amino-5-hydroxy-4,5,6,7-tetrahydroindazol-2-yl)((4R*)-1,2,3,4-tetrahydroquinolin-4-yl)methanone], the half-inhibitory concentration (IC50) at Human FXIIa was 60 µM; on Human alpha-thrombin, over 100 µM.

For `Nc1c2c(nn1C(=O)[C@H]1CCNc3ccccc31)CC[C@H](O)C2` (single isomer, unassigned) [Example 170, ((5S*)-3-amino-5-hydroxy-4,5,6,7-tetrahydroindazol-2-yl)((4S*)-1,2,3,4-tetrahydroquinolin-4-yl)methanone], the half-inhibitory concentration (IC50) on Human FXIIa was 6 µM; against Human alpha-thrombin, over 150 µM.

With `Nc1nn(C(=O)[C@H]2CCNc3ccccc32)c2c1C[C@@H](O)CC2` (single isomer, unassigned) [Example 171, ((5S*)-3-amino-5-hydroxy-4,5,6,7-tetrahydroindazol-1-yl)((4S*)-1,2,3,4-tetrahydroquinolin-4-yl)methanone], the half-inhibitory concentration (IC50) on Human FXIIa and on Human alpha-thrombin was over 90 µM throughout.

In the case of `Nc1nn(C(=O)[C@@H]2CCNc3ccccc32)c2c1C[C@@H](O)CC2` (single isomer, unassigned) [Example 172, ((5S*)-3-amino-5-hydroxy-4,5,6,7-tetrahydroindazol-1-yl)((4R*)-1,2,3,4-tetrahydroquinolin-4-yl)methanone], the IC50 on Human FXIIa and against Human alpha-thrombin was over 100 µM throughout.

Take `Nc1c2c(nn1C(=O)C1CCNc3ccc(F)cc31)CCC(F)(F)C2` (single isomer, unassigned) [Example 173, (S*)-(3-amino-5,5-difluoro-4,5,6,7-tetrahydroindazol-2-yl)(6-fluoro-1,2,3,4-tetrahydroquinolin-4-yl)methanone]: the 50% inhibitory concentration (IC50) turned out to be 0.1 µM on Human FXIIa and 30 µM at Human alpha-thrombin.

Take `CO[C@H]1CCc2nn(C(=O)[C@H]3CCNc4ccc(F)cc43)c(N)c2C1` (single isomer, unassigned) [Example 177, ((5S*)-3-amino-5-methoxy-4,5,6,7-tetrahydroindazol-2-yl)((4S*)-6-fluoro-1,2,3,4-tetrahydroquinolin-4-yl)methanone]: the concentration for half-maximal inhibition (IC50) against Human FXIIa is 2 µM; at Human alpha-thrombin, over 100 µM.

Turning to `CO[C@@H]1CCc2nn(C(=O)[C@@H]3CCNc4ccc(F)cc43)c(N)c2C1` (single isomer, unassigned) [Example 180, ((5R*)-3-amino-5-methoxy-4,5,6,7-tetrahydroindazol-2-yl)((4R*)-6-fluoro-1,2,3,4-tetrahydroquinolin-4-yl)methanone], the 50% inhibitory concentration (IC50) against Human FXIIa was 0.09 µM; on Human alpha-thrombin, over 80 µM.

As to `Nc1c2c(nn1C(=O)[C@H]1CCNc3ccc(F)cc31)C[C@@H](O)CC2` (single isomer, unassigned) [Example 183, ((6S*)-3-amino-6-hydroxy-4,5,6,7-tetrahydroindazol-2-yl)((4S*)-6-fluoro-1,2,3,4-tetrahydroquinolin-4-yl)methanone], the half-maximal inhibitory concentration (IC50) against Human FXIIa was 0.6 µM; against Human alpha-thrombin, over 100 µM.

For `Nc1c2c(nn1C(=O)[C@H]1CCNc3ccc(F)cc31)C[C@H](O)CC2` (single isomer, unassigned) [Example 185, ((6R*)-3-amino-6-hydroxy-4,5,6,7-tetrahydroindazol-2-yl)((4S*)-6-fluoro-1,2,3,4-tetrahydroquinolin-4-yl)methanone], the IC50 at Human FXIIa is 0.07 µM; at Human alpha-thrombin it was over 100 µM.

As to `Nc1c2c(nn1C(=O)C1CCNc3ccc(F)cc31)CCC(NC(=O)OCc1ccccc1)C2` (single isomer, unassigned) [Example 190, Benzyl N-[(5S*)-3-amino-2-[(6-fluoro-1,2,3,4-tetrahydroquinolin-4-yl)carbonyl]-4,5,6,7-tetrahydro-2H-indazol-5-yl]carbamate], the IC50 at Human FXIIa was 0.4 µM; on Human alpha-thrombin, over 60 µM.

On to `Cc1cccc2c1NCC[C@H]2C(=O)n1nc2c(c1N)CC[C@H](O)C2` (single isomer, unassigned) [Example 197, ((6S*)-3-amino-6-hydroxy-4,5,6,7-tetrahydroindazol-2-yl)((4R*)-8-methyl-1,2,3,4-tetrahydroquinolin-4-yl)methanone], for which the IC50 against Human FXIIa is 1.5 µM; at Human alpha-thrombin, over 150 µM.

Turning to `Cc1cccc2c1NCC[C@@H]2C(=O)n1nc2c(c1N)CC[C@H](O)C2` (single isomer, unassigned) [Example 198, ((6S*)-3-amino-6-hydroxy-4,5,6,7-tetrahydroindazol-2-yl)((4S*)-8-methyl-1,2,3,4-tetrahydroquinolin-4-yl)methanone], the IC50 against Human FXIIa was 0.1 µM; against Human alpha-thrombin it was over 100 µM.

`Nc1c2c(nn1C(=O)[C@H]1CCNc3c(Cl)cccc31)C[C@H](O)CC2` (single isomer, unassigned) [Example 209, ((6R*)-3-amino-6-hydroxy-4,5,6,7-tetrahydroindazol-2-yl)((4S*)-8-chloro-1,2,3,4-tetrahydroquinolin-4-yl)methanone]: the 50% inhibitory concentration (IC50) was 0.04 µM against Human FXIIa and over 100 µM against Human alpha-thrombin.

For `Nc1c2c(nn1C(=O)[C@@H]1CCNc3c(Cl)cccc31)C[C@H](O)CC2` (single isomer, unassigned) [Example 210, ((6R*)-3-amino-6-hydroxy-4,5,6,7-tetrahydroindazol-2-yl)((4R*)-8-chloro-1,2,3,4-tetrahydroquinolin-4-yl)methanone], the IC50 at Human FXIIa is 3.3 µM; against Human alpha-thrombin it was over 100 µM.

On to `Cc1cccc2c1NCC[C@@H]2C(=O)n1nc2c(c1N)C[C@H](O)CC2` (single isomer, unassigned) [Example 218, ((5R*)-3-amino-5-hydroxy-4,5,6,7-tetrahydro-2H-indazol-2-yl)((4S*)-8-methyl-1,2,3,4-tetrahydroquinolin-4-yl)methanone], for which the half-maximal inhibitory concentration (IC50) was 0.05 µM on Human FXIIa and over 90 µM at Human alpha-thrombin.

As to `Nc1c2c(nn1C(=O)[C@H]1CCNc3ccc(F)cc31)CC[C@H](N)C2` (stereo in doubt) [Example 192, ((5S*)-3,5-diamino-4,5,6,7-tetrahydroindazol-2-yl)((4S*)-6-fluoro-1,2,3,4-tetrahydroquinolin-4-yl)methanone], the IC50 against Human FXIIa was 0.08 µM; against Human alpha-thrombin it was over 90 µM.
